Here are results for four compounds from ChEMBL document CHEMBL1157988, “Loloatins A-D, cyclic decapeptide antibiotics produced in culture by a tropical marine bacterium” (1999).

Holding throughout (type): functional
The test system of experiment [1] is Staphylococcus aureus. As to the kind of experiment: Antimicrobial activity against methicillin-resistant Staphylococcus aureus.
The test system of experiment [2] is Pseudomonas aeruginosa. As to the kind of experiment: Antimicrobial activity against Pseudomonas aeruginosa.
Experiment [3] concerns Candida albicans. As to the kind of experiment: Antimicrobial activity against Candida albicans.
For experiment [4], the system named is Enterococcus faecium. Nature of the experiment: Antimicrobial activity against vancomycin-resistant Enterococcus faecium.
Experiment [5] has as its system Stenotrophomonas maltophilia. Nature of the experiment: Antimicrobial activity against Xanthomonas maltophilia.
Experiment [6] deals with Enterococcus faecium. Nature of the experiment: Antimicrobial activity against Enterococcus faecium.
Experiment [7] concerns Streptococcus pneumoniae. Nature of the experiment: Antimicrobial activity against Streptococcus pneumoniae.
Experiment [8] deals with Enterococcus faecalis. Nature of the experiment: Antimicrobial activity against Enterococcus faecalis.
Experiment [9] relates to Burkholderia cepacia. Nature of the experiment: Antimicrobial activity against Pseudomonas cepacia.
Experiment [10] relates to Escherichia coli. Nature of the experiment: Antimicrobial activity against Escherichia coli.
Experiment [11] relates to Staphylococcus aureus. As to the kind of experiment: Antimicrobial activity against Staphylococcus aureus.
In experiment [12] the test system is Enterococcus faecalis. As to the kind of experiment: Antimicrobial activity against vancomycin-resistant Enterococcus faecalis.
Experiment [13] relates to Streptococcus pneumoniae. Nature of the experiment: Antimicrobial activity against penicillin-resistant Streptococcus pneumoniae.

≈ marks a conversion by molar mass, not a printed value. Square brackets hold non-standard residues; d marks the D form. Peptide text beside a SMILES is read from it. Orn = NCCC[C@H](N)C(=O)O Some results are limits rather than exact numbers.

For the compound `CC(C)C[C@@H]1NC(=O)[C@H](CCCN)NC(=O)[C@H](C(C)C)NC(=O)[C@H](Cc2c[nH]c3ccccc23)NC(=O)[C@H](CC(=O)O)NC(=O)[C@H](CC(N)=O)NC(=O)[C@@H](Cc2ccccc2)NC(=O)[C@H](Cc2c[nH]c3ccccc23)NC(=O)[C@@H]2CCCN2C(=O)[C@@H](Cc2ccc(O)cc2)NC1=O` [LOLOATIN C] (cyclo(DWV[Orn]L[dY]PW[dF]N)), the minimal inhibitory concentration (MIC) (as a rule, the smallest concentration in the dilution series that meets the test's criterion for growth inhibition) in [1] was 0.5 µg/mL (≈ 0.374 µM); in experiment [2] it was more than 32 µg/mL; in experiment [3], 8 µg/mL (≈ 5.99 µM); in [4], 2 µg/mL (≈ 1.5 µM); in experiment [5], more than 32 µg/mL; in experiment [6] it was 2 µg/mL (≈ 1.5 µM). Also, the minimal inhibitory concentration (MIC) was less than 0.25 µg/mL in [7]; 1 µg/mL (≈ 0.749 µM) in experiment [8]; more than 32 µg/mL in [9]; 1 µg/mL (≈ 0.749 µM) in experiment [10]; 0.5 µg/mL (≈ 0.374 µM) in experiment [11]; 1 µg/mL (≈ 0.749 µM) in experiment [12].

In the case of `CC(C)C[C@@H]1NC(=O)[C@H](CCCN)NC(=O)[C@H](C(C)C)NC(=O)[C@H](Cc2c[nH]c3ccccc23)NC(=O)[C@H](CC(=O)O)NC(=O)[C@H](CC(N)=O)NC(=O)[C@@H](Cc2ccccc2)NC(=O)[C@H](Cc2ccccc2)NC(=O)[C@@H]2C[C@@H](O)CN2C(=O)[C@@H](Cc2ccc(O)cc2)NC1=O` [LOLOATIN D], the MIC is 8 µg/mL (≈ 6.1 µM) in [1]; more than 32 µg/mL in experiment [2]; 16 µg/mL (≈ 12.2 µM) in experiment [3]; 4 µg/mL (≈ 3.05 µM) in experiment [13]; 8 µg/mL (≈ 6.1 µM) in [4]; more than 32 µg/mL in [5]. Moreover, the MIC in experiment [6] was 8 µg/mL (≈ 6.1 µM); in experiment [7] it was 4 µg/mL (≈ 3.05 µM); in [8] it was 8 µg/mL (≈ 6.1 µM); in [9], more than 32 µg/mL; in experiment [10], more than 32 µg/mL; in [11], 8 µg/mL (≈ 6.1 µM). The compound further displayed an MIC in [12] of 8 µg/mL (≈ 6.1 µM).

`CC(C)C[C@@H]1NC(=O)[C@H](CCCN)NC(=O)[C@H](C(C)C)NC(=O)[C@H](Cc2ccc(O)cc2)NC(=O)[C@H](CC(=O)O)NC(=O)[C@H](CC(N)=O)NC(=O)[C@@H](Cc2ccccc2)NC(=O)[C@H](Cc2ccccc2)NC(=O)[C@@H]2CCCN2C(=O)[C@@H](Cc2ccc(O)cc2)NC1=O` [LOLOATIN A]: the MIC in experiment [1] is 4 µg/mL (≈ 3.14 µM); in [2], more than 32 µg/mL; in [3] it was 8 µg/mL (≈ 6.28 µM); in [13], 2 µg/mL (≈ 1.57 µM); in [4], 4 µg/mL (≈ 3.14 µM); in experiment [5], more than 32 µg/mL. In addition, the minimum inhibitory concentration (MIC) in [6] is 4 µg/mL (≈ 3.14 µM); in experiment [7], 1 µg/mL (≈ 0.785 µM); in experiment [8], 4 µg/mL (≈ 3.14 µM); in experiment [9], more than 32 µg/mL; in experiment [10], more than 32 µg/mL; in [11], 4 µg/mL (≈ 3.14 µM). The same compound had an MIC in experiment [12] of 4 µg/mL (≈ 3.14 µM).

Turning to `CC(C)C[C@@H]1NC(=O)[C@H](CCCN)NC(=O)[C@H](C(C)C)NC(=O)[C@H](Cc2c[nH]c3ccccc23)NC(=O)[C@H](CC(=O)O)NC(=O)[C@H](CC(N)=O)NC(=O)[C@@H](Cc2ccccc2)NC(=O)[C@H](Cc2ccccc2)NC(=O)[C@@H]2CCCN2C(=O)[C@@H](Cc2ccc(O)cc2)NC1=O` [LOLOATIN B], the minimal inhibitory concentration (MIC) in [1] is 2 µg/mL (≈ 1.54 µM); in experiment [2] it was more than 32 µg/mL; in [3] it was 8 µg/mL (≈ 6.17 µM); in [13] it was 1 µg/mL (≈ 0.771 µM); in experiment [4] it was 2 µg/mL (≈ 1.54 µM); in experiment [5], more than 32 µg/mL. Besides, the MIC in experiment [6] is 2 µg/mL (≈ 1.54 µM); in [7], 1 µg/mL (≈ 0.771 µM); in experiment [8], 2 µg/mL (≈ 1.54 µM); in [9], more than 32 µg/mL; in experiment [10] it was more than 32 µg/mL; in experiment [11], 2 µg/mL (≈ 1.54 µM). Moreover, in experiment [12], the MIC was 2 µg/mL (≈ 1.54 µM).
